Tested on: GM01896 cells (MPS II dermal fibroblasts)
Experiment: Assay 1: MPS cellular assay, MPS II (heparan sulfate disaccharide biomarkers by LC-MS)
Format: cell-based, human
Details: Assay 1 for MPS II, heparan sulfate disaccharide biomarkers (I2a4, I2a6, I2S0 and/or I2S6), read-out: IC50 Range
Experimental: Dermal fibroblasts from humans with an MPS disorder and from healthy donors are grown. Cells are expanded and kept in culture for analysis. Human foreskin fibroblasts can be obtained from the American Type Culture Collection (CRL-1634). Human dermal fibroblasts derived from biopsies of individuals are purchased from Coriell Institute: clinically healthy individuals, GM00408, GM00409, GM00200 (clinically unaffected sibling of an individual with metachromatic leukodystrophy), GM05659, GM08398, and GM15871 (clinically unaffected sibling of an individual with unclassified Ehlers-Danlos syndrome); heterozygous MPS I carriers, GM01392, GM01393 and GM0003; homozygous individuals affected with MPS I, GM06214, GM11495, GM00034, GM01391 and GM01256; individuals with MPS II, GM01896, GM03181, GM00615 and GM00298; individuals with MPS IIIA, GM00879, GM00643, GM00934, GM06110 and GM00629; MPS IIIB, GM01426; MPS IIIC, GM05157; MPS IIID, GM05093; and MPS VII, GM00121. All cells are grown in DMEM containing 50 U ml-1 penicillin, […] ml-1 streptomycin, 2 mM glutamine and 10% FBS. Cells are seeded on 15-cm-diameter tissue culture dishes, grown to confluence and maintained in culture for analysis. Sulfamidase activity in cell extracts is measured with 4-methylumbelliferyl-α-D-N-sulfoglucosaminide according the vendors instructions substituting Tris-acetate buffer (pH 6.5; Moscerdam).
Cells are treated with a compound of the invention at a concentration at or below 30 μM for 4 to 21 days. Cell monolayers are washed with phosphate buffered saline and detached by treatment with GIBCO trypsin-EDTA solution (Invitrogen). After centrifugation, the supernatant is removed and the cells are lysed in 0.5 mL of 0.1 N sodium hydroxide. The amount of protein is determined by bicinchoninic acid (BCA assay, Thermo Scientific). GAGs are isolated by anion exchange chromatography and digested with glycosaminoglycan lyases (heparinases I, II, and III, IBEX).
Enzymatically depolymerized GAG preparations are differentially mass labeled by reductive amination with [^12C6]aniline. Briefly, heparan sulfate disaccharides (1-10 pmol) are dried down in a centrifugal evaporator and reacted with [^12C6]aniline or [^13C6]aniline (15 μL, 165 μmol) and 15 μL of 1 M NaCNBH3 (Sigma-Aldrich) freshly prepared in dimethylsulfoxide/acetic acid (7:3, v/v) is added to each sample. Reactions are carried out at 37° C. for 16 h and then dried in a centrifugal evaporator. Unsubstituted amines are reacted with propionic anhydride (Sigma-Aldrich). Dried samples are reconstituted in 20 μL of 50% methanol, and 3 μL of propionic anhydride (Sigma-Aldrich, 23.3 μmol) is added. Reactions are carried out at ˜23° C. for 2 h. Acylated disaccharides are subsequently aniline tagged as described above. Each sample is mixed with commercially available standard unsaturated disaccharides (Seikagaku), standard N-sulfoglucosamine, glucosamine-6-sulfate, N-acetylgalactosamine-4-sulfate and N-acetylgalactosamine-6-sulfate (Sigma-Aldrich), and/or synthesized α-L-idopyranosyluronate-(1,4)-2-N-acetyl-2-deoxy-α/β-D-glucopyranoside (I0S0). All standards are tagged with [^13C6]aniline (Sigma-Aldrich). Samples are then analyzed by LC-MS using an LTQ Orbitrap Discovery electrospray ionization mass spectrometer (Thermo Scientific) equipped with quaternary HPLC pump (Finnigan Surveyor MS pump) and a reverse-phase capillary column as described in J. Biol. Chem. 2008, 283(48), 33674.
MPS II: Assay 1, as described above, was used to determine activity for MPS II using GM01896 cells. […] Extracted ion chromatograms were obtained. Cell viability was monitored using alamar blue or ATP quantification. IC50's were calculated using curve fitting within the ChemInnovation CBIS database system.

With “{6-[1-methyl-3-(2-morpholin-4-ylethyl)(1H-indazol-6-yl)]-2-morpholin-4-ylpyrimidin-4-yl}[4-(3-methylpyrazolyl)phenyl]amine” the IC50 was less than 500 nM.

Same assay, conditions: Homo sapiens, Fibroblast, Assay 1 for MPS II, heparan sulfate disaccharide biomarkers (I2a4, I2a6, I2S0 and/or I2S6), read-out: IC50 Range

Compared with `Cn1ncc2ccc(-c3cc(Nc4ccc(NS(C)(=O)=O)cc4)nc(N4CCOCC4)n3)cc21` [(4-{[6-(1-methyl(1H-indazol-6-yl))-2-morpholin-4-ylpyrimidin-4-yl]amino}phenyl)(methylsulfonyl)amine], `COC(=O)c1ccc(Nc2cc(-c3ccc4cnn(C)c4c3)nc(N3CCOCC3)n2)cc1` [methyl 4-{[6-(1-methyl(1H-indazol-6-yl))-2-morpholin-4-ylpyrimidin-4-yl]amino}benzoate] is higher in IC50: 500 to 1000 nM for the first, 1000 to 5000 nM for the second. The first is the more potent here.

`Cc1nc2ccc(-c3cc(Nc4ccc(Cl)cc4)nc(N4CCOCC4)n3)cc2n1C` [[6-(1,2-dimethylbenzimidazol-6-yl)-2-morpholin-4-ylpyrimidin-4-yl](4-chlorophenyl)amine] and `Cn1c(C2CC2)nc2ccc(-c3cc(Nc4ccc(Cl)cc4)nc(N4CCOCC4)n3)cc21` [(4-chlorophenyl)[6-(2-cyclopropyl-1-methylbenzimidazol-6-yl)-2-morpholin-4-ylpyrimidin-4-yl]amine] fall in the same range of IC50: 500 to 1000 nM for the first, 500 to 1000 nM for the second.

Compared with `Clc1ccc(Nc2cc(-c3ccc4c(c3)ncn4CCCN3CCOCC3)nc(N3CCOCC3)n2)cc1` [(4-chlorophenyl){2-morpholin-4-yl-6-[1-(3-morpholin-4-ylpropyl)benzimidazol-5-yl]pyrimidin-4-yl}amine], `CNC(=O)c1ccc(Nc2cc(-c3ccc4c(c3)ncn4CCCN3CCCC3)nc(N3CCOCC3)n2)cc1` [N-methyl[4-({2-morpholin-4-yl-6-[1-(3-pyrrolidinylpropyl)benzimidazol-5-yl]pyrimidin-4-yl}amino)phenyl]carboxamide] is lower in IC50: 1000 to 5000 nM for the first, 500 to 1000 nM for the second. The second is the more potent here.

`Cn1ncc2ccc(-c3cc(Nc4ccc(C(=O)NC5CC5)cc4)nc(N4CCOCC4)n3)cc21` [N-cyclopropyl(4-{[6-(1-methyl(1H-indazol-6-yl))-2-morpholin-4-ylpyrimidin-4-yl]amino}phenyl)carboxamide] and `Cn1ncc2ccc(-c3cc(Nc4ccc5ncoc5c4)nc(N4CCOCC4)n3)cc21` [benzoxazol-6-yl[6-(1-methyl(1H-indazol-6-yl))-2-morpholin-4-ylpyrimidin-4-yl]amine] fall in the same range of IC50: 1000 to 5000 nM for the first, 1000 to 5000 nM for the second.

Compared with `Cc1nc2ccc(-c3cc(Nc4ccc(Cl)cc4)nc(N4CCOCC4)n3)cc2n1CCCN1CCCC1` [(4-chlorophenyl){6-[2-methyl-1-(3-pyrrolidinylpropyl)benzimidazol-6-yl]-2-morpholin-4-ylpyrimidin-4-yl}amine], `Cn1nc(CCN2CCOCC2)c2ccc(-c3cc(Nc4ccc(F)cc4)nc(N4CCOCC4)n3)cc21` [(4-fluorophenyl){6-[1-methyl-3-(2-morpholin-4-ylethyl)(1H-indazol-6-yl)]-2-morpholin-4-ylpyrimidin-4-yl}amine] is higher in IC50: 500 to 1000 nM for the first, 1000 to 5000 nM for the second. The first is the more potent here.

Compared with `Cn1ccc2ccc(Nc3cc(-c4ccc5c(CCCN)nn(C)c5c4)nc(N4CCOCC4)n3)cc21` [{6-[3-(3-aminopropyl)-1-methyl(1H-indazol-6-yl)]-2-morpholin-4-ylpyrimidin-4-yl}(1-methylindol-6-yl)amine], `Cc1nn(C)c2cc(-c3cc(Nc4ccc(-c5cccn5C)cc4)nc(N4CCOCC4)n3)ccc12` [[6-(1,3-dimethyl(1H-indazol-6-yl))-2-morpholin-4-ylpyrimidin-4-yl][4-(1-methylpyrrol-2-yl)phenyl]amine] is higher in IC50: less than 500 nM for the first, 500 to 1000 nM for the second. The first is the more potent here.

First: CNC(=O)c1ccc(Nc2cc(-c3ccc4ncn(CCCN(C)C)c4c3)nc(N3CCOCC3)n2)cc1 [{4-[(6-{1-[3-(dimethylamino)propyl]benzimidazol-6-yl}-2-morpholin-4-ylpyrimidin-4-yl)amino]phenyl}-N-methylcarboxamide]
Second: CNC(=O)c1ccc(Nc2cc(-c3ccc4ncn(CCN(C)C)c4c3)nc(N3CCOCC3)n2)cc1 [{4-[(6-{1-[2-(dimethylamino)ethyl]benzimidazol-6-yl}-2-morpholin-4-ylpyrimidin-4-yl)amino]phenyl}-N-methylcarboxamide]
The IC50 of the first is higher: 1000 to 5000 nM for the first, less than 500 nM for the second.

Reference: patent US20190151312A1, “HEPARAN SULFATE BIOSYNTHESIS INHIBITORS FOR THE TREATMENT OF DISEASES” (BioMarin Pharmaceutical Inc., priority 2014, published 2019)
